One series relates to ACAT. Description: ACAT assay on liver microsomes of the fed rats. It counts as biochemical. As to conditions: liver microsomes of rats fed 0.1% test substance in 1% cholesterol diet, versus control group. On the procedure:
1 g each of the livers taken from each group of rats of Example 2 was homogenized in 5 ml of homogenization medium (0.1 M KH2PO4, pH 7.4, 0.1 mM EDTA and 10 mM β-mercaptoethanol). The homogenate was centrifuged at 3,000×g for 15 min. at 4° C. and the supernatant thus obtained was centrifuged at 15,000×g for 15 min. at 4° C. to obtain a supernatant. The supernatant was put into an ultracentrifuge tube (Beckman) and centrifuged at 100,000×g for 1 hour at 4° C. to obtain microsomal pellets, which were then suspended in 3 ml of the homogenization medium and centrifuged at 100,000×g for 1 hour at 4° C. The pellets thus obtained were suspended in 1 ml of the homogenization medium. The protein concentration of the resulting suspension was determined by Lowry's method and then adjusted to 4 to 8 mg/ml. The resulting suspension was stored in a deep freezer (Biofreezer, Forma Scientific Inc.). […]
200 μl of the resulting supernatant was put in a scintillation bottle and 4 ml of scintillation fluid (Lumac) was added thereto. The mixture was assayed for radioactivity with 1450 Microbeta liquid scintillation counter (Wallacoy, Finland). ACAT activity was calculated as picomoles of cholesteryl oleate synthesized per min. per mg protein (pmoles/min/mg protein).

The test system of series [1] is main artery fatty streak / arterial endothelium. Put plainly: Analysis for fatty streak in the main artery of cholesterol-fed rabbits. The note with it: 1% cholesterol diet plus 0.1% rutin or quercetin or 1 mg/kg Lovastatin, 6 weeks, Oil Red O staining. It counts as in vivo, New Zealand White rabbits. The procedure:
24 three-month-old New Zealand White rabbits (Yeonam Horticulture and Animal Husbandry College, Korea), each weighing about 2.5 to 2.6 kg, were raised under a condition of temperature 20±2° C., relative humidity 55±5%, and photoperiod 12L/12D. […] RC4 diet comprises 7.6% moisture, 22.8% crude protein, 2.8% crude fat, 8.8% crude ash, 14.4% crude cellulose and 43.6% soluble nitrogen-free substances.
The chest of each of the rabbits sacrificed in Step 2 was incised. The downward portion of the main artery from the site 1 cm above the aortic valve was cut out in a length of about 5 cm and the fat surrounding the main artery was removed. The main artery was incised in the middle along the longitudinal axis and pinned to a dish. The moist artery was photographed and, then, the staining of fatty streaks was carried out in accordance with the method of Esper, E., et al. (J. Lab. Clin. Med., 121, 103-110 (1993)) as follows.
A part of the incised main artery was washed three times with anhydrous propylene glycol for 2 min and stained for 30 min. with a saturated solution of Oil Red O (ORO, Sigma Co.) dissolved in propylene glycol. Thereafter, the artery was washed twice with 85% propylene glycol for 3 min. to remove remaining staining solution and, then washed with physiological saline. The artery was photographed and the photograph was traced. The area of stained region (fatty streak region) was determined with an image analyzer (LEICA, Q-600, Germany) and its proportion (%) to the total arterial area was calculated.

The subject of another series is ICR mice. Put plainly: Toxicity of orally administered rutin (single oral dose, 10 day observation). The procedure:
12 seven-week-old, specific pathogen-free ICR […] mice, six female mice each weighing about 25 to 29 g and six male mice each weighing about 34 to 38 g, were kept under an environment of 22±1° C., 55±5% relative humidity and 12L/12D photoperiod. Fodder (Cheiljedang Co., mouse and rat fodder) and water were sterilized and fed to the mice.
Further, on the 10th day, the mice were sacrificed and the internal organs were visually examined.

A short description of series [2]: Administration of rutin capsules to humans, plasma lipid metabolism. In kind it is in vivo, human. The note with it: two men, daily oral dose of lomg/kg as capsule, 60 days, before vs after. The procedure: The plasma cholesterol and neutral lipid (triglyceride) contents were determined before and after the administration.

Consider `O=c1c(O)c(-c2ccc(O)c(O)c2)oc2cc(O)cc(O)c12` [Quercetin, quercetin], for which, in the series on ACAT, the “% Inhibition on ACAT activity” value is given as 20%. The “A: Proportion (%) of fatty streak region to the total arterial area” value in series [1] is recorded as 8%.
Turning to `C[C@@H]1O[C@@H](OC[C@H]2O[C@@H](Oc3c(-c4ccc(O)c(O)c4)oc4cc(O)cc(O)c4c3=O)[C@H](O)[C@@H](O)[C@@H]2O)[C@H](O)[C@H](O)[C@H]1O` [Rutin], the “survival at day 10” value in the series with ICR mice (mice, single oral dose of 1,000 mg/kg) is reported as “All the mice were alive”. Further, the “pathological abnormality at autopsy” value with ICR mice (mice, single oral dose of 1,000 mg/kg, day 10) is recorded as “did not develop any pathological abnormality”. The toxicity entry with ICR mice (mouse, in vivo, po, 160 mg/kg) was “no toxicity”. Besides, in series [2], the “reduction of plasma cholesterol content” value was 25% and the “reduction of plasma neutral lipid (triglyceride) content” value is on record as 20%. Further, the “A: Proportion (%) of fatty streak region to the total arterial area” value in series [1] came out at 10%.

The values above are taken from US6562866B1 (priority 1998, dated 2003).
